# Measurements published in PubChem BioAssay AID1963832 (Molecular Pharmacology Branch, DTP, NCI, 2024).
# System: 885724-159-R-J1-PDC complex spheroid viability
# Assay: Anticancer human tumor 885724-159-R-J1-PDC patient-derived pancreatic adenocarcinoma cell line growth inhibition [POLQ]
# Settings: for IC50: curve of first compound; for viability, T/C: stronger effect = lower value
# Method in brief: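 Three-cell-type spheroids modelling solid tumor plus stroma served as the readout system; POL inhibitors were tested individually and in combination, concentration ranges set by clinical Cmax where known.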
# 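Note: spheroids exposed to compounds for 7 days.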
smiles,measurement,setting,value
CC(=O)O[C@H]1C(=O)[C@@]2(C)[C@H]([C@H](OC(=O)c3ccccc3)[C@]3(O)C[C@H](OC(=O)[C@H](O)[C@@H](NC(=O)c4ccccc4)c4ccccc4)C(C)=C1C3(C)C)[C@]1(OC(C)=O)CO[C@@H]1C[C@@H]2O + Nc1ccc(C#CCN(C(=O)Cc2ncc(C(F)(F)F)cc2C(F)(F)F)c2ccc(F)cc2)nn1,IC50,second compound 0.0316 µM,> 3000 nM
same,IC50,second compound 0.1 µM,> 3000 nM
same,IC50,second compound 0.316 µM,> 3000 nM
same,IC50,second compound 1 µM,> 3000 nM
same,IC50,second compound 3.16 µM,> 3000 nM
same,IC50,second compound 10 µM,> 3000 nM
same,"viability, T/C","second compound 0.0316 µM, first compound 0.00949 µM",65.9%
same,"viability, T/C","second compound 0.0316 µM, first compound 0.03 µM",59.9%
same,"viability, T/C","second compound 0.0316 µM, first compound 0.0949 µM",56.6%
same,"viability, T/C","second compound 0.0316 µM, first compound 0.3 µM",64.7%
same,"viability, T/C","second compound 0.0316 µM, first compound 0.949 µM",62.5%
same,"viability, T/C","second compound 0.0316 µM, first compound 3 µM",70.3%
same,"viability, T/C","second compound 0.1 µM, first compound 0.00949 µM",69.9%
same,"viability, T/C","second compound 0.1 µM, first compound 0.03 µM",61.7%
same,"viability, T/C","second compound 0.1 µM, first compound 0.0949 µM",62.5%
same,"viability, T/C","second compound 0.1 µM, first compound 0.3 µM",69.1%
same,"viability, T/C","second compound 0.1 µM, first compound 0.949 µM",70%
same,"viability, T/C","second compound 0.1 µM, first compound 3 µM",68.9%
same,"viability, T/C","second compound 0.316 µM, first compound 0.00949 µM",71.8%
same,"viability, T/C","second compound 0.316 µM, first compound 0.03 µM",60.4%
same,"viability, T/C","second compound 0.316 µM, first compound 0.0949 µM",68%
same,"viability, T/C","second compound 0.316 µM, first compound 0.3 µM",58.1%
same,"viability, T/C","second compound 0.316 µM, first compound 0.949 µM",71.2%
same,"viability, T/C","second compound 0.316 µM, first compound 3 µM",74%
same,"viability, T/C","second compound 1 µM, first compound 0.00949 µM",63.4%
same,"viability, T/C","second compound 1 µM, first compound 0.03 µM",61.5%
same,"viability, T/C","second compound 1 µM, first compound 0.0949 µM",58.6%
same,"viability, T/C","second compound 1 µM, first compound 0.3 µM",63%
same,"viability, T/C","second compound 1 µM, first compound 0.949 µM",70.2%
same,"viability, T/C","second compound 1 µM, first compound 3 µM",69.5%
same,"viability, T/C","second compound 3.16 µM, first compound 0.00949 µM",64.8%
same,"viability, T/C","second compound 3.16 µM, first compound 0.03 µM",66.5%
same,"viability, T/C","second compound 3.16 µM, first compound 0.0949 µM",61.9%
same,"viability, T/C","second compound 3.16 µM, first compound 0.3 µM",60%
same,"viability, T/C","second compound 3.16 µM, first compound 0.949 µM",68.3%
same,"viability, T/C","second compound 3.16 µM, first compound 3 µM",75%
same,"viability, T/C","second compound 10 µM, first compound 0.00949 µM",67.4%
same,"viability, T/C","second compound 10 µM, first compound 0.03 µM",59.2%
same,"viability, T/C","second compound 10 µM, first compound 0.0949 µM",66.2%
same,"viability, T/C","second compound 10 µM, first compound 0.3 µM",70%
same,"viability, T/C","second compound 10 µM, first compound 0.949 µM",75.3%
same,"viability, T/C","second compound 10 µM, first compound 3 µM",71.8%
CC[C@@]1(O)C(=O)OCc2c1cc1n(c2=O)Cc2cc3c(CN(C)C)c(O)ccc3nc2-1 + Nc1ccc(C#CCN(C(=O)Cc2ncc(C(F)(F)F)cc2C(F)(F)F)c2ccc(F)cc2)nn1,IC50,second compound 0.0316 µM,> 100 nM
same,IC50,second compound 0.1 µM,> 100 nM
same,IC50,second compound 0.316 µM,> 100 nM
same,IC50,second compound 1 µM,> 100 nM
same,IC50,second compound 3.16 µM,> 100 nM
same,IC50,second compound 10 µM,> 100 nM
same,"viability, T/C","second compound 0.0316 µM, first compound 0.000316 µM",91.3%
same,"viability, T/C","second compound 0.0316 µM, first compound 0.001 µM",89.7%
same,"viability, T/C","second compound 0.0316 µM, first compound 0.00316 µM",94.6%
same,"viability, T/C","second compound 0.0316 µM, first compound 0.01 µM",83.6%
same,"viability, T/C","second compound 0.0316 µM, first compound 0.0316 µM",77.8%
same,"viability, T/C","second compound 0.0316 µM, first compound 0.1 µM",63.3%
same,"viability, T/C","second compound 0.1 µM, first compound 0.000316 µM",108%
same,"viability, T/C","second compound 0.1 µM, first compound 0.001 µM",93%
same,"viability, T/C","second compound 0.1 µM, first compound 0.00316 µM",89.4%
same,"viability, T/C","second compound 0.1 µM, first compound 0.01 µM",82%
same,"viability, T/C","second compound 0.1 µM, first compound 0.0316 µM",72.2%
same,"viability, T/C","second compound 0.1 µM, first compound 0.1 µM",63%
same,"viability, T/C","second compound 0.316 µM, first compound 0.000316 µM",96.7%
same,"viability, T/C","second compound 0.316 µM, first compound 0.001 µM",101%
same,"viability, T/C","second compound 0.316 µM, first compound 0.00316 µM",93%
same,"viability, T/C","second compound 0.316 µM, first compound 0.01 µM",94.2%
same,"viability, T/C","second compound 0.316 µM, first compound 0.0316 µM",77%
same,"viability, T/C","second compound 0.316 µM, first compound 0.1 µM",58.9%
same,"viability, T/C","second compound 1 µM, first compound 0.000316 µM",100%
same,"viability, T/C","second compound 1 µM, first compound 0.001 µM",91.7%
same,"viability, T/C","second compound 1 µM, first compound 0.00316 µM",85.2%
same,"viability, T/C","second compound 1 µM, first compound 0.01 µM",85.3%
same,"viability, T/C","second compound 1 µM, first compound 0.0316 µM",84.3%
same,"viability, T/C","second compound 1 µM, first compound 0.1 µM",54.7%
same,"viability, T/C","second compound 3.16 µM, first compound 0.000316 µM",98%
same,"viability, T/C","second compound 3.16 µM, first compound 0.001 µM",102%
same,"viability, T/C","second compound 3.16 µM, first compound 0.00316 µM",98.5%
same,"viability, T/C","second compound 3.16 µM, first compound 0.01 µM",83.2%
same,"viability, T/C","second compound 3.16 µM, first compound 0.0316 µM",85.1%
same,"viability, T/C","second compound 3.16 µM, first compound 0.1 µM",59%
same,"viability, T/C","second compound 10 µM, first compound 0.000316 µM",98.5%
same,"viability, T/C","second compound 10 µM, first compound 0.001 µM",87.2%
same,"viability, T/C","second compound 10 µM, first compound 0.00316 µM",98.8%
same,"viability, T/C","second compound 10 µM, first compound 0.01 µM",98.8%
same,"viability, T/C","second compound 10 µM, first compound 0.0316 µM",81.1%
same,"viability, T/C","second compound 10 µM, first compound 0.1 µM",63%
